Experimental data from patent publication US20230277483A1, “COMPOSITIONS AND METHODS TO TREAT INFLAMMATION” (University of Iowa Research Foundation, priority 2022, published 2023).

System: human monocyte-derived macrophages (MDM) using THP-1 cells
Test: Proinflammatory cytokines after Pg-LPS challenge (qRT-PCR, ELISA)
Assay type: cell-based
Protocol: Sg metabolites modulate proinflammatory cytokines in human periodontal associated cells in vitro. Sg were cultured in a total of 40 ml DMEM for 24 hrs. After 200 μl of Sg suspension reached 0.2 at OD600 value in a 96-well plate, the Sg metabolites were collected by centrifugation at 3000 g for 10 min and then filtered through a 0.22 μm filter. No toxicity of Sg metabolites was detected using an MTT assay on primary human bone marrow mesenchymal stromal cells (BMSCs) and primary human gingival fibroblasts (HGF) (data no shown). The modulation of Sg metabolites on inflammatory cytokines was tested using human monocyte-derived macrophages (MDM) and HGF. The MDM were generated by inducing a human macrophage cell line (THP-1) using PMA at 10 ng/ml. The MDM at 2×10^6 cells/per well and HGF at 2×10^4 cells/per well were cultured in 24-well plates using DMEM with 10% FBS and 1% PS. The Sg metabolites at 1 and 5% v/v were added and incubated for 24 hrs before challenging with Pg-LPS at 100 ng/ml.
Human monocyte-derived macrophages (MDM) using THP-1 cells and HGF were cultured in a 24-well plate with DMEM and challenged with Pg-LPS at 100 ng/ml.
In addition, freshly isolated epidydimal white adipose tissues (eWAT) from mice on a HFD for 16 weeks were minced and cultured in 24-well plates and treated with HCA at 0.5 and 1.0 μM in DMEM/F-12 containing 10% cosmic calf serum (CCS) and 1% penicillin-streptomycin (basal growth media, BGM). […] These preliminary data are strong evidence that Sg metabolites have the potential to modulate host inflammatory responses and attenuate inflammation.
HCA promotes proliferation of health related bacteria and inhibits proliferation and attachment of periodontopathogenic bacteria. Promoting the growth of health-related commensal bacteria while inhibiting proliferation and attachment of pathogenic bacteria may be effective at preventing or treating periodontal inflammation. To determine if HCA has an effect on the growth properties of commensal bacteria and periodontopathogens, HCA at different concentrations was added to aerobic culture of S. mitis and S. oralis and anaerobic culture of T. denticola as described in our published manuscript (see detail in Shu et al, Journal of Periodontology, 2022). FIGS. 18A-C summarize the functions of HCA on the proliferation of specific commensal and pathogenic bacteria. […] Furthermore, the function of HCA on P. gingivalis attachment, a key parameter of adhesion and biofilm formation by periodontopathogenic bacteria, was investigated. […] Attachment measurements of P. gingivalis were performed based on our published studies (see detail in Shu et al, Journal of Periodontology, 2022). […] To test the biocompatibility and anti-inflammatory properties of HCA, human monocyte-derived macrophages (MDM) and gingival fibroblasts (HGF) were prepared as described in our previous studies. The cells were then treated with HCA from 0.1 to 50 μM. No toxicity was observed after treatment with different concentrations of HCA in either cell type using an MTT assay (FIGS. 19A and B, left column). The anti-inflammatory function of HCA on MDM and HGF after exposure to P. gingivalis lipopolysaccharide (PG-LPS) was investigated. […] HCA mitigates inflammation and affects the composition of microbiomes in vivo. Recent studies investigated whether HCA modulates periodontal inflammation using a mouse model. To induce periodontal inflammation, a total of 1 μl Pg-LPS at 10 μg/μl was directly injected twice a week into the interdental region between maxillary molars of C57BL/6J mice using a Hamilton1700 series syringe according to our previously published studies. 100 μl of HCA at 0.5 μM was administrated I.P. three time a week. […] It was also tested whether HCA affects the composition of the microbiome in vivo. For this purpose, high fat diet-induced obese (DIO) mice (The Jackson Laboratory) received I.P, administration of 100 μl of HCA at 0.2 and 0.5 μM three times a week for 3 weeks. […]

O=C(O)CCCCCO [HCA, 6-hydroxycaproic acid]
transcripts of IL-1β, IL-6, and IL-8 (HCA at 0.1 μM, 6 hours following PG-LPS challenge at 0.1 μg/mL): significantly downregulated | protein levels of IL-6 and IL-8 (HCA at 0.1 μM, supernatant, after 24 hrs): significantly reduced | transcripts of IL-1β, 6, and 8 (HCA at 0.1 and 1.0 μM, Pg-LPS at 100 ng/ml, after 6 hrs): significantly downregulated | proinflammatory cytokines (IL-6 transcript and IL-6 protein in supernatants) (at 0.1 μg after Pg-LPS challenge): modulate
